Where two headings read alike, the source gives them in different places.
Columns and labels:
[1] = biological target: T1, full length recombinant Pim-3 protein (Homo sapiens, UniProt Q86V86); test: Pim-3 enzyme assay (HTRF, phosphorylation of biotinylated-BAD (S112) peptide); type: biochemical; conditions: read-out: Pim3 IC50
T1 construct: by full length recombinant Pim-1, Pim-2, or Pim-3 protein; purchased Millipore (UK)
Source text: Pim-3 was purchased from Millipore (UK).
The phosphorylation of biotinylated-BAD (S112) peptide by full length recombinant Pim-1, Pim-2, or Pim-3 protein was detected with streptavidin:Allophycocyanin (APC) conjugate and a europium (Eu) labeled antibody directed against phosphorylated-BAD (S112). […] The fluorescence is directly proportional to the amount of phosphorylated BAD peptide present in the reaction.
A reference compound was included on each assay plate in order to validate that plate; on one plate of every assay run, two additional reference compounds were included.
The final buffer conditions were as follows: 60 mM Hepes, pH 7.0, 0.05% BSA, 2 mM DTT. […] The reaction was stopped by the addition of 3 mM EDTA, and fluorescence was measured by an HTRF® Rubystar microplate reader. For each plate, percent of control (POC) values were calculated for each well. Values for the IC50 IP were estimated using a standard 4-parameter logistic model.

[2] = biological target: T2, full length recombinant Pim-2 protein (Homo sapiens, UniProt Q9P1W9); test: Pim-2 enzyme assay (HTRF, phosphorylation of biotinylated-BAD (S112) peptide); type: biochemical; conditions: read-out: Pim2_IC50
T2 construct: by full length recombinant Pim-1, Pim-2, or Pim-3 protein; hexahistidine tag followed by a thrombin cleavage site (N); made in house; host or cells: Sf9 (baculovirus) or E. coli (pET28)
Outline: (§1)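 Inhibition is reported as IC50 from a 4-parameter logistic fit of percent-of-control HTRF signal, which tracks phospho-BAD (S112) formed by full-length human Pim-1 or Pim-2. Reactions ran in 60 mM Hepes, pH 7.0, 0.05% BSA, 2 mM DTT.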

[3] = biological target: T3, full length recombinant Pim-1 protein (Homo sapiens, UniProt P11309); test: Pim-1 enzyme assay (HTRF, phosphorylation of biotinylated-BAD (S112) peptide); type: biochemical; conditions: read-out: Pim_1_IC50
T3 construct: by full length recombinant Pim-1, Pim-2, or Pim-3 protein; hexahistidine tag followed by a thrombin cleavage site (N); made in house; host or cells: Sf9 (baculovirus) or E. coli (pET28)
Outline: as §1

[4] = biological target: T4, Pim-1 stably transfected into the U2OS human osteogenic sarcoma line (Homo sapiens, UniProt P11309); test: Pim cell assay, phospho-BAD normalized against total BAD, U2OS stably transfected with Pim-1; type: cell-based; conditions: U2OS stably transfected with Pim-1; phospho-BAD normalized against total BAD; 29 min incubation; read-out: Pim1_Cell_IC50_
T4 construct: expressed in transfected cells; host or cells: U2OS human osteogenic sarcoma line
Outline: (§2)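 U2OS cells stably expressing Pim-1 or Pim-2 were plated overnight at 37 °C, then dosed over a 10-point curve (final 0.3% DMSO; DMSO alone as high control). Lysates assayed for phospho- and total BAD by Meso Scale immunoassay; % phosphoprotein = (2×phospho)/(phospho+total)×100.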

[5] = biological target: T5, Pim-2 stably transfected into the U2OS human osteogenic sarcoma line (Homo sapiens, UniProt Q9P1W9); test: Pim cell assay, phospho-BAD normalized against total BAD, U2OS stably transfected with Pim-2; type: cell-based; conditions: U2OS stably transfected with Pim-2; phospho-BAD normalized against total BAD; 29 min incubation; read-out: Pim2_Cell_IC50_
T5 construct: expressed in transfected cells; host or cells: U2OS human osteogenic sarcoma line
Outline: as §2

T3 sequence (P11309 whole entry): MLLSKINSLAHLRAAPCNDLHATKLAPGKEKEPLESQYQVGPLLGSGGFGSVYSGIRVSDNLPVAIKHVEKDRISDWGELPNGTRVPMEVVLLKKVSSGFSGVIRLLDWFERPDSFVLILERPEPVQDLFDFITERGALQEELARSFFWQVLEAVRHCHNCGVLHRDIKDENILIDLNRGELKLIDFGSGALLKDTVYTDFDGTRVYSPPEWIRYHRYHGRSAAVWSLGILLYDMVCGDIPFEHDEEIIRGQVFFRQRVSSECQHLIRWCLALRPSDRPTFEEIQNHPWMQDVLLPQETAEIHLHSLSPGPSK
T4 sequence (P11309 whole entry): as above
T5 sequence (Q9P1W9 whole entry): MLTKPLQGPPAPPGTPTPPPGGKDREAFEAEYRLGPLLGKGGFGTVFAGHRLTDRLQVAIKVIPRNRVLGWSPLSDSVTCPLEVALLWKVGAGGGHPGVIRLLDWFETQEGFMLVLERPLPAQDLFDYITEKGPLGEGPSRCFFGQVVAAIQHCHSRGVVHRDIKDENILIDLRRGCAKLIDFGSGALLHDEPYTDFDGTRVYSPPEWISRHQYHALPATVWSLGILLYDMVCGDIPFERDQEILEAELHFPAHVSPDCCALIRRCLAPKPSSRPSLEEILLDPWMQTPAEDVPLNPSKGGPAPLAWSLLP
T2 sequence (Q9P1W9 whole entry): as above

| Molecule | IC50 [1] | IC50 ([2]; enzyme assay, Pim-2) | IC50 ([3]; enzyme assay, Pim-1) | IC50 [4] | IC50 [5] | IC50 [2] | IC50 [3] |
| --- | --- | --- | --- | --- | --- | --- | --- |
| 3-(6-(4-amino-1-piperidinyl)-2-pyrazinyl)-N-benzyl-1H-indole-5-carboxamide [Example 241] | 538 nM | 2480 nM | 376 nM | – | – | – | – |
| 3-(6-(4-amino-1-piperidinyl)-2-pyrazinyl)-N-phenyl-1H-indole-5-carboxamide [Example 240] | 719 nM | > 3000 nM | 254 nM | – | – | – | – |
| Fc1cccc(F)c1-c1ccc2[nH]nc(-c3cncc(O[C@@H]4CNCC[C@H]4F)n3)c2c1 (single isomer, unassigned) [Example 18, 5-(2,6-difluorophenyl)-3-(6-(trans-4-fluoropiperidin-3-yloxy)pyrazin-2-yl)-1H-indazole] | 34 nM | 264 nM | 75 nM | – | – | – | – |
| COc1cncc(-c2ccc3[nH]nc(-c4cncc(OC)c4)c3c2)c1 [Example 29, 3,5-Bis(5-methoxypyridin-3-yl)-1H-indazole] | 172 nM | 1010 nM | 227 nM | – | – | – | – |
| NC1CCN(c2cncc(-c3n[nH]c4ccc(-c5c(F)cccc5F)cc34)c2)CC1 [Example 35, 1-(5-(5-(2,6-difluorophenyl)-1H-indazol-3-yl)pyridin-3-yl)piperidin-4-amine] | 104 nM | 2300 nM | 124 nM | – | – | – | – |
| NC1CCN(c2cncc(-c3n[nH]c4ccc(N5CCCCC5=O)cc34)n2)CC1 [Example 91, 1-(3-(6-(4-amino-1-piperidinyl)-2-pyrazinyl)-1H-indazol-5-yl)-2-piperidinone] | 926 nM | > 3000 nM | 629 nM | – | – | – | – |
| Nc1cccnc1-c1ccc2[nH]nc(-c3cncc(N4CCC(N)CC4)n3)c2c1 [Example 94, 2-(3-(6-(4-amino-1-piperidinyl)-2-pyrazinyl)-1H-indazol-5-yl)-3-pyridinamine] | 118 nM | > 1000 nM | 86 nM | – | – | – | – |
| Nc1ncc(-c2ccc3[nH]nc(-c4cncc(N5CCC(N)CC5)n4)c3c2)c(NC2CCCC2)n1 [Example 96, 5-(3-(6-(4-amino-1-piperidinyl)-2-pyrazinyl)-1H-indazol-5-yl)-N~4~-cyclopentyl-2,4-pyrimidinediamine] | 1120 nM | > 1000 nM | 848 nM | – | – | – | – |
| Cc1c(N)cccc1-c1ccc2[nH]nc(-c3cncc(N4CCC(N)CC4)n3)c2c1 [Example 103, 1-(6-(5-(3-amino-2-methylphenyl)-1H-indazol-3-yl)-2-pyrazinyl)-4-piperidinamine] | 68 nM | 224 nM | 34 nM | – | – | – | – |
| NC1CCN(c2cncc(-c3n[nH]c4ccc(-c5cccc6c5C5(CCOCC5)CN6)cc34)n2)CC1 [Example 106, 1-(6-(5-(1,2,2′,3′,5′,6′-hexahydrospiro[indole-3,4′-pyran]-4-yl)-1H-indazol-3-yl)-2-pyrazinyl)-4-piperidinamine] | 278 nM | 897 nM | 499 nM | – | – | – | – |
| Nc1ccc(OC(F)(F)F)c(-c2ccc3[nH]nc(-c4cncc(N5CCC(N)CC5)n4)c3c2)c1 [Example 107, 1-(6-(5-(5-amino-2-(trifluoromethoxy)phenyl)-1H-indazol-3-yl)-2-pyrazinyl)-4-piperidinamine] | 67 nM | 192 nM | 30 nM | – | – | – | – |
| NC1CCN(c2cncc(-c3n[nH]c4ccc(-c5ccnc6cc(OC(F)(F)F)ccc56)cc34)n2)CC1 [Example 111, 1-(6-(5-(7-(trifluoromethoxy)-4-quinolinyl)-1H-indazol-3-yl)-2-pyrazinyl)-4-piperidinamine] | 87 nM | 292 nM | 29 nM | – | – | – | – |
| N#Cc1ccc2c(-c3ccc4[nH]nc(-c5cncc(N6CCC(N)CC6)n5)c4c3)ccnc2c1 [Example 112, 4-(3-(6-(4-amino-1-piperidinyl)-2-pyrazinyl)-1H-indazol-5-yl)-7-quinolinecarbonitrile] | 116 nM | 521 nM | 32 nM | – | – | – | – |
| CC(C)(C)NC(=O)c1ccc(F)c(-c2ccc3[nH]nc(-c4cncc(O[C@@H]5CCCNC5)n4)c3c2)c1 [Example 116, N-tert-butyl-4-fluoro-3-(3-(6-((3R)-3-piperidinyloxy)-2-pyrazinyl)-1H-indazol-5-yl)benzamide] | 22 nM | 26 nM | 27 nM | – | – | – | – |
| O=c1[nH]cncc1-c1ccc2[nH]nc(-c3cncc(O[C@@H]4CCCNC4)n3)c2c1 [Example 125, 5-(3-(6-((3R)-3-piperidinyloxy)-2-pyrazinyl)-1H-indazol-5-yl)-4(3H)-pyrimidinone] | 16 nM | 80 nM | 21 nM | – | – | – | – |
| O=c1cc(-c2ccc3[nH]nc(-c4cncc(O[C@@H]5CCCNC5)n4)c3c2)c(Cl)c[nH]1 [Example 128, 5-chloro-4-(3-(6-((3R)-3-piperidinyloxy)-2-pyrazinyl)-1H-indazol-5-yl)-2(1H)-pyridinone] | 30 nM | 59 nM | 31 nM | – | – | – | – |
| Cn1cc(-c2ccc3[nH]nc(-c4cncc(O[C@@H]5CCCNC5)n4)c3c2)cn1 [Example 129, 5-(1-methyl-1H-pyrazol-4-yl)-3-(6-((3R)-3-piperidinyloxy)-2-pyrazinyl)-1H-indazole] | 3 nM | 30 nM | 3 nM | – | – | – | – |
| Brc1ccc2[nH]nc(-c3cncc(O[C@@H]4CCCNC4)n3)c2c1 [Example 135, 5-bromo-3-(6-((3R)-3-piperidinyloxy)-2-pyrazinyl)-1H-indazole] | 82 nM | 227 nM | 83 nM | – | – | – | – |
| c1cc(-c2ccc3[nH]nc(-c4cncc(O[C@@H]5CCCNC5)n4)c3c2)nc(C2CC2)c1 [Example 136, 5-(6-cyclopropyl-2-pyridinyl)-3-(6-((3R)-3-piperidinyloxy)-2-pyrazinyl)-1H-indazole] | 15 nM | 164 nM | 30 nM | – | – | – | – |
| c1cc(C2CC2)cc(-c2ccc3[nH]nc(-c4cncc(O[C@@H]5CCCNC5)n4)c3c2)n1 [Example 141, 5-(4-cyclopropyl-2-pyridinyl)-3-(6-((3R)-3-piperidinyloxy)-2-pyrazinyl)-1H-indazole] | 32 nM | 435 nM | 42 nM | – | – | – | – |
| CC(C)Oc1cccc(-c2ccc3[nH]nc(-c4cncc(O[C@@H]5CCCNC5)n4)c3c2)n1 [Example 144, 5-(6-(1-methylethoxy)-2-pyridinyl)-3-(6-((3R)-3-piperidinyloxy)-2-pyrazinyl)-1H-indazole] | 26 nM | 252 nM | 27 nM | – | – | – | – |
| c1cc2[nH]nc(-c3cncc(O[C@@H]4CCCNC4)n3)c2cc1-c1ccc2nncn2c1 [Example 145, 6-(3-(6-((3R)-3-piperidinyloxy)-2-pyrazinyl)-1H-indazol-5-yl)[1,2,4]triazolo[4,3-a]pyridine] | 80 nM | 496 nM | 23 nM | – | – | – | – |
| CC(C)Oc1cncc(-c2ccc3[nH]cc(-c4nnc(N[C@@H]5CCCNC5)o4)c3c2)n1 [Example 518] | – | – | – | 6920 nM | > 31600 nM | 97 nM | 25 nM |
| NC1CCN(c2cncc(-c3c[nH]c4ccc(-c5cncc(NC6CC6)n5)cc34)n2)CC1 [Example 519] | – | – | – | 338 nM | > 31600 nM | 128 nM | 1 nM |
| CC(C)Nc1nc(-c2n[nH]c3ccc(-c4c(F)cccc4F)cc23)cc(=O)[nH]1 [Example 524] | – | – | – | 1010 nM | > 31600 nM | 18 nM | 5 nM |
| CC(C)Oc1nc(-c2n[nH]c3ccc(-c4c(F)cccc4F)cc23)cc(=O)[nH]1 [Example 528] | – | – | – | 779 nM | > 15800 nM | 36 nM | 13 nM |
| COC(=O)c1ccc2[nH]nc(-c3cncc(N4CCC(N)CC4)n3)c2c1 [Example 558, methyl 3-(6-(4-amino-1-piperidinyl)-2-pyrazinyl)-1H-indazole-5-carboxylate] | – | – | – | 156 nM | 3800 nM | 8 nM | 2 nM |
| NC1CCN(c2nc(O)cc(-c3n[nH]c4ccc(-c5c(F)cccc5F)cc34)n2)CC1 [Example 565] | – | – | – | 1760 nM | 13500 nM | 2 nM | 1 nM |
| NC1CCN(c2cc(O)nc(-c3c[nH]c4ccc(-c5c(F)cccc5F)cc34)n2)CC1 [Example 566] | – | – | – | 5590 nM | > 31600 nM | 23 nM | 4 nM |

Reference: US9090593B2, “Bicyclic compounds as Pim inhibitors” (AMGEN INC., priority 2010, dated 2015)
